Measured values as given in patent publication US5726195A, “Aminoacyl adenylate mimics as novel antimicrobial and antiparasitic agents” (Cubist Pharmaceuticals, Inc., priority 1996, dated 1998).
pIC50: −log10 of the molar value. ≈ marks a conversion by molar mass, not a printed value.

Key:
[1] = target: E. Coli. IleRS (isoleucyl-tRNA synthetase) (Escherichia coli, UniProt P00956); assay: Inhibition of isoleucyl-tRNA synthetase (aminoacylation of tRNA with [3H]isoleucine); type: biochemical; settings: E. coli enzyme; irreversible inhibitors: values are 50% of the active enzyme concentration; read-out: IC50 E.Coli. IleRS
Method: The extent of aminoacylation of tRNA with isoleucine catalyzed by isoleucyl-tRNA synthetase enzyme was measured by monitoring the incorporation of [3H] isoleucine into trichloroacetic acid-precipitable tRNA in the presence of a compound of Formula I, as compared with activity in the absence of inhibitor. The isoleucyl-tRNA synthetase enzymes are well known in the prior art and can be obtained and purified by known methods (for example see: D. Kern et at., Biochimie, 61, 1257-1272 (1979) and J. Gilbart et al., Antimicrobial Agents and Chemotherapy, 37 (1), 32-38 (1993)).
Isoleucyl-tRNA synthetase enzyme (0.08-2.0 nM, preferably, 0.4 nM) was first pre-incubated at 25° C. with 0.05 mg/ml bovine serum albumin, 10 mM DTT, 2.5% dimethyl sulfoxide, with or without a compound of Formula I, for 20 minutes. At this point a substrate solution (a solution containing the following: ATP, [^3 H]isoleucine, tRNA, HEPES, magnesium chloride, and potassium chloride) was added to give a final concentration of 0.0286 mg/ml bovine serum albumin, 5.7 mM DTT, 4 mM ATP, 5-20 μM [^3 H] isoleucine (1-15 Ci/mmol), 90 μM crude tRNA or 2 μM isoleucine specific tRNA, 1.4% dimethyl sulfoxide, 30 mM HEPES (pH 7.5), 10 mM magnesium chloride, and 50 mM potassium chloride and incubated at 25° C. Aliquots were removed at selected times (e.g. 5, 10, 20 minutes) and applied to 3MM filter paper discs (Whatman) and then dropped into 5% (wt/vol) trichloroacetic acid for >5 minutes. Filters were washed for three 10-minute periods in 5% trichloroacetic acid, rinsed in 95% ethanol and diethyl ether, and radioactivity was measured with Betafluor™ (National Diagnostics) by liquid scintillation counting.
Inhibitor activity is reported in Table II as an IC50 value (inhibitor concentration causing 50% inhibition of enzyme activity) per a known amount of active enzyme. In the case of irreversible inhibitors (1:1 stoichiometry) these values are 50% of the active enzyme concentration. The IC50 (in nM, E. coli) values of representative compounds of the present invention are listed in the second column of Table II.

E. faecalis ATCC 33011 = assay: Whole cell antimicrobial screen, MIC; type: cell-based; settings: Enterococcus faecalis, ATCC33011
Method: (§1) Compounds were tested for antimicrobial activity against a panel of organisms according to standard procedures described by the National Committee for Clinical Laboratory Standards (NCCLS document M7-A3, Vol. 13, No. 25, 1993/NCCLS document M27-P, Vol. 12, No. 25, 1992). Compounds were dissolved in 100% dimethyl sulfoxide and were diluted to the final reaction concentration (0.1 μg/mL-500 μg/mL) in microbial growth media. In al cases the final concentration of dimethyl sulfoxide incubated with cells is less than or equal to 1%. For minimum inhibitory concentration (MIC) calculations, 2-fold dilutions of compounds were added to wells of a microtiter plate containing 5×10^4 bacteria or fungal cells in a final volume of 100 lambda of an appropriate media (Mueller-Hinton Broth; Haemophilus Test Media; Mueller-Hinton Broth+5% Sheep Blood; or […]). Plates were incubated overnight at an appropriate temperature (30° C.-37° C.) and optical densities (measure of cell growth) were measured using a commercial plate reader. The MIC value is defined as the lowest compound concentration inhibiting growth of the test organism.

B. subtilis ATCC 6633 = assay: Whole cell antimicrobial screen, MIC; type: cell-based; settings: Bacillus subtilis, ATCC6633
Method: as §1

S. aureus ATCC 14154 = assay: Whole cell antimicrobial screen, MIC; type: cell-based; settings: Staphylococcus aureus, ATCC14154
Method: as §1

[2] = system: M. catarrhalis ATCC 25240; assay: Whole cell antimicrobial screen, MIC; type: cell-based; settings: Moraxella catarrhalis, ATCC25240
Method: as §1

K. pneumonia ATCC 4352 = assay: Whole cell antimicrobial screen, MIC; type: cell-based; settings: Klebsiella pneumoniae, ATCC4352
Method: as §1

S. aureus ATCC 6538P = assay: Whole cell antimicrobial screen, MIC; type: cell-based; settings: Staphylococcus aureus, ATCC6538P
Method: as §1

[3] = system: S. epidermidis ATCC 33501; assay: Whole cell antimicrobial screen, MIC; type: cell-based; settings: Staphylococcus epidermidis, ATCC33501
Method: as §1

E. faecium ATCC 6569 = assay: Whole cell antimicrobial screen, MIC; type: cell-based; settings: Enterococcus faecium, ATCC6569
Method: as §1

[4] = system: S. saprophyticus ATCC 35552; assay: Whole cell antimicrobial screen, MIC; type: cell-based; settings: Staphylococcus saprophyticus, ATCC35552
Method: as §1

C. albicans ATCC 10231 = assay: Whole cell antimicrobial screen, MIC; type: cell-based; settings: Candida albicans, ATCC10231
Method: as §1

S. pyogenes ATCC 8668 = assay: Whole cell antimicrobial screen, MIC; type: cell-based; settings: Streptococcus pyogenes, ATCC8668
Method: as §1

[5] = system: Streptococcus pyogenes (ATCC 8668); assay: Mouse protection test against wild type Streptococcus pyogenes; type: in vivo, Streptococcus pyogenes; female CD-1 mice; settings: 10 mg/kg sc (positive control), repeated at 4 hours, 7 days
Description: The mouse protection test is an industry standard for measuring the efficacy of a test compound in vivo [for examples of this model see J. J. Clement, et al., Antimicrobial Agents and Chemotherapy, 38 (5), 1071-1078, (1994)]. As exemplified below, this test was used to show the in vivo efficacy of the compounds of the present invention against bacteria.
The in vivo antibacterial activity of compound X was established by infecting female CD-1 mice (Charles River Lab, Massachusettes) weighing 20-24 g intraperitoneally with Streptococcus pyogenes inoculum. The inoculum was prepared from Streptococcus pyogenes (ATCC 8668) which was cultured in brain heart infusion broth (Baltimore Biological Laboratories,Maryland) at 37° C. for 18 hr, and then 0.1 ml of the overnight culture was diluted with the medium to 5.0 ml for reading its OD at 600 nm (0.017). The turbidity of a 0.5 McFarland standard is equivalent to OD600 0.1, or 10^8 cfu/ml. Then, 8×10^5 cfu of the bacteria (940 μl of 1:1000 overnight culture) was added to 20 ml of phosphate buffered saline (Sigma P-0261 ) containing 5% hog gastric mucin (Sigma M-2378). All animals were injected with 0.5 ml of the inoculum, equivalent to 2×10^4 cfu/mouse which is the dose causing ~100% death of the animals without treatment.
Compound X (50 mg) was dissolved in 5.0 ml of 0.05M Tris.HCl (pH 8.8) to give a solution of 10 mg/ml. This solution was serially diluted with 0.05 M Tris.HCl by 5-fold (1.0 ml to 5.0 ml) to give 2, 0.4 and 0.08 mg/ml solutions. The known antibiotic erythromycin (Sigma E-6376, in phosphate buffered saline, 1 mg/ml, pH 7.0) was used as a positive control. All the solutions were filtered with 0.2 μm Nalgene syringe filter. Immediately after the bacterial inoculation, group 1 animals were subcutaneously (sc) injected with 0.05M Tris.HCl (no antibiotic) and groups 2 to 5 were given compound X sc at 0.8, 4, 20, and 100 mg/kg, respectively. Group 6 animals received erythromycin sc at 10 mg/kg. These injections were repeated once at 4 hours after the inoculation for the respective groups. The injection volume at each time was 10 ml per kilogram of body weight. The 50% protective dose (PD50) is calculated on the basis of the number of mice surviving 7 days after inoculation.

Sequence of E. Coli. IleRS (isoleucyl-tRNA synthetase) (P00956 whole entry): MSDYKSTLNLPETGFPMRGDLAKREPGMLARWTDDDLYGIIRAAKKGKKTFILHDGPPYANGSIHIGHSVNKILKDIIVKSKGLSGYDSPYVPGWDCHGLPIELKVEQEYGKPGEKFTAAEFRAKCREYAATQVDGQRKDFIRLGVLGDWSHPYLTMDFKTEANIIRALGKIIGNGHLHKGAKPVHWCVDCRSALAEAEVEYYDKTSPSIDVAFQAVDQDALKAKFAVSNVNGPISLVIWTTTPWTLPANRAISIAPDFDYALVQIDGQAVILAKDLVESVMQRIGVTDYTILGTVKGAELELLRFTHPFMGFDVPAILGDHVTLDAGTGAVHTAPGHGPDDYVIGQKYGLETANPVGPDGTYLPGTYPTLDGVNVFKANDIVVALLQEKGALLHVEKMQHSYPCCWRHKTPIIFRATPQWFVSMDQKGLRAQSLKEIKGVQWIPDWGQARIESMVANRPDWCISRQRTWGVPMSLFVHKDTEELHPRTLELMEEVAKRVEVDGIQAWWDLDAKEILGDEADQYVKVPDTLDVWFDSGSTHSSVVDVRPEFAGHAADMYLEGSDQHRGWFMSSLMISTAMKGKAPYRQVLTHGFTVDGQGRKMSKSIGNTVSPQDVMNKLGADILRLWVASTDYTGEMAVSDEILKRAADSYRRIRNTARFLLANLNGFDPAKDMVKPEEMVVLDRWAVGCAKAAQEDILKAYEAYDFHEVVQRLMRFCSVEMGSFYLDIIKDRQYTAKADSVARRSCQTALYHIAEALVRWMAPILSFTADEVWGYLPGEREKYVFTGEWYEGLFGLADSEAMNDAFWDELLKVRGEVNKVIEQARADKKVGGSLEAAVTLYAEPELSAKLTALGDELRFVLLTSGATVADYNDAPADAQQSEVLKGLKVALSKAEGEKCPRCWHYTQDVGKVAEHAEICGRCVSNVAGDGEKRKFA

| Structure (SMILES) | pIC50 [1] | MIC (E. faecalis ATCC 33011) [µg/mL] | MIC (B. subtilis ATCC 6633) [µg/mL] | MIC (S. aureus ATCC 14154) [µg/mL] | MIC [2] [µg/mL] | MIC (K. pneumonia ATCC 4352) [µg/mL] | MIC (S. aureus ATCC 6538P) [µg/mL] | MIC [3] [µg/mL] | MIC (E. faecium ATCC 6569) [µg/mL] | MIC [4] [µg/mL] | MIC (C. albicans ATCC 10231) [µg/mL] | MIC (S. pyogenes ATCC 8668) [µg/mL] | Protective % [5] [%] | Number of Alive ([5]; of 5 mice) |
| --- | --- | --- | --- | --- | --- | --- | --- | --- | --- | --- | --- | --- | --- | --- |
| CC[C@H](C)[C@H](N)C(=O)NS(=O)(=O)OC[C@H]1O[C@@H](CCn2nnc(-c3ccc(-c4ccccc4)cc3C)n2)[C@H](O)[C@@H]1O [XXI] | 9.30 | > 500 | 100 (≈ 170 µM) | 500 (≈ 849 µM) | < 50 | 100 (≈ 170 µM) | 100 (≈ 170 µM) | 50 (≈ 84.9 µM) | 500 (≈ 849 µM) | 50 (≈ 84.9 µM) |  |  |  |  |
| CC[C@H](C)[C@H](N)C(=O)NS(=O)(=O)OC[C@H]1O[C@@H](CCn2nnc(-c3ccc(OCc4ccc([N+](=O)[O-])s4)cc3)n2)[C@H](O)[C@@H]1O [XVIII] | 9.22 | > 500 |  | 25 (≈ 38.1 µM) |  |  | 5 (≈ 7.63 µM) | 5 (≈ 7.63 µM) | > 500 | 5 (≈ 7.63 µM) | 100 (≈ 153 µM) | 2 (≈ 3.05 µM) |  |  |
| CC[C@H](C)[C@H](N)C(=O)NS(=O)(=O)OC[C@H]1O[C@@H](CCn2nnc(-c3ccc(C(=O)OCc4ccccc4)cc3)n2)[C@H](O)[C@@H]1O [VI] | 8.12 | > 500 |  | 50 (≈ 79 µM) |  |  | 25 (≈ 39.5 µM) | 5 (≈ 7.9 µM) | 100 (≈ 158 µM) | 25 (≈ 39.5 µM) | > 500 | > 5 |  |  |
| CC[C@H]1OC(=O)[C@H](C)[C@@H](O[C@H]2C[C@@](C)(OC)[C@@H](O)[C@H](C)O2)[C@H](C)[C@@H](O[C@@H]2O[C@H](C)C[C@H](N(C)C)[C@H]2O)[C@](C)(O)C[C@@H](C)C(=O)[C@H](C)[C@@H](O)[C@]1(C)O [Erythromycin, erythromycin, reference compound] |  |  |  |  |  |  |  |  |  |  |  |  | 100 | 5 |
